Assay results from the supplement of paper PMC10307832.

Legend:
Test in all cases: relative viability (nuclei count vs DMSO), 5 days (fraction); higher = more cells survive
BX 795 + Luminespib = compound: O=C(NCCCNc1nc(Nc2cccc(NC(=O)N3CCCC3)c2)ncc1I)c1cccs1 [BX 795] + CCNC(=O)c1noc(-c2cc(C(C)C)c(O)cc2O)c1-c1ccc(CN2CCOCC2)cc1 [Luminespib] (partner 0.01 µM)
Outline: (§1)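 Relative viability was taken as the ratio of nuclei in treated wells to nuclei in vehicle wells. Lung cancer cell lines in 1536-well plates received compounds by pin tool one day after seeding, either one drug alone or a fixed anchor-drug dose plus five library-drug doses (not always all listed) in √10 steps. Nuclei were counted on 4× images after 5 days of treatment, and values are medians of duplicate plates.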

BX 795 + OSI-027 = compound: O=C(NCCCNc1nc(Nc2cccc(NC(=O)N3CCCC3)c2)ncc1I)c1cccs1 [BX 795] + COc1cccc2cc(-c3nc([C@H]4CC[C@H](C(=O)O)CC4)n4ncnc(N)c34)[nH]c12 [OSI-027] (partner 0.5 µM)
Outline: as §1

BX 795 + Dasatinib = compound: O=C(NCCCNc1nc(Nc2cccc(NC(=O)N3CCCC3)c2)ncc1I)c1cccs1 [BX 795] + Cc1nc(Nc2ncc(C(=O)Nc3c(C)cccc3Cl)s2)cc(N2CCN(CCO)CC2)n1 [Dasatinib] (partner 0.075 µM)
Outline: as §1

BX 795 + Trametinib = compound: O=C(NCCCNc1nc(Nc2cccc(NC(=O)N3CCCC3)c2)ncc1I)c1cccs1 [BX 795] + CC(=O)Nc1cccc(-n2c(=O)n(C3CC3)c(=O)c3c(Nc4ccc(I)cc4F)n(C)c(=O)c(C)c32)c1 [Trametinib] (partner 0.02 µM)
Outline: as §1

BX 795 + Phenformin = compound: O=C(NCCCNc1nc(Nc2cccc(NC(=O)N3CCCC3)c2)ncc1I)c1cccs1 [BX 795] + N=C(N)NC(=N)NCCc1ccccc1 [Phenformin] (partner 250 µM)
Outline: as §1

Row | Cell Line | relative viability (BX 795 + Luminespib; first compound 0.04 µM) | relative viability (BX 795 + Luminespib; first compound 0.1265 µM) | relative viability (BX 795 + Luminespib; first compound 0.4 µM) | relative viability (BX 795 + Luminespib; first compound 1.265 µM) | relative viability (BX 795 + OSI-027; first compound 0.04 µM) | relative viability (BX 795 + OSI-027; first compound 0.1265 µM) | relative viability (BX 795 + OSI-027; first compound 0.4 µM) | relative viability (BX 795 + OSI-027; first compound 1.265 µM) | relative viability (BX 795 + Dasatinib; first compound 0.04 µM) | relative viability (BX 795 + Dasatinib; first compound 0.1265 µM) | relative viability (BX 795 + Dasatinib; first compound 0.4 µM) | relative viability (BX 795 + Dasatinib; first compound 1.265 µM) | relative viability (BX 795 + Trametinib; first compound 0.04 µM) | relative viability (BX 795 + Trametinib; first compound 0.1265 µM) | relative viability (BX 795 + Trametinib; first compound 0.4 µM) | relative viability (BX 795 + Trametinib; first compound 1.265 µM) | relative viability (BX 795 + Phenformin; first compound 0.04 µM) | relative viability (BX 795 + Phenformin; first compound 0.1265 µM) | relative viability (BX 795 + Phenformin; first compound 0.4 µM) | relative viability (BX 795 + Phenformin; first compound 1.265 µM)
1 | EKVX | 0.893 | 0.977 | 0.825 | 0.79 | 0.657 | 0.649 | 0.63 | 0.603 | 0.637 | 0.295 | 0.539 | 0.508 | 0.358 | 0.298 | 0.382 | 0.351 | 0.225 | 0.247 | 0.21 | 0.217
2 | EMC-BAC-2 | 1.18 | 1.22 | 1.13 | 0.492 | 0.413 | 0.404 | 0.377 | 0.273 | 0.296 | 0.371 | 0.287 | 0.265 | 0.943 | 0.921 | 0.868 | 0.749 | 0.473 | 0.489 | 0.469 | 0.301
3 | EPLC-272H | 0.342 | 0.187 | 0.158 | 0.292 | 0.297 | 0.291 | 0.304 | 0.336 | 0.436 | 0.329 | 0.274 | 0.267 | 0.293 | 0.32 | 0.275 | 0.325 | 0.364 | 0.216 | 0.284 | 0.272
4 | H3255 | 0.891 | 0.852 | 0.979 | 0.891 | 0.581 | 0.605 | 0.629 | 0.51 | 0.361 | 0.307 | 0.346 | 0.386 | 0.616 | 0.666 | 0.655 | 0.565 | 0.371 | 0.354 | 0.406 | 0.363
5 | HARA | 0.588 | 0.838 | 0.907 | 0.656 | 0.598 | 0.494 | 0.701 | 0.41 | 0.241 | 0.268 | 0.26 | 0.276 | 0.75 | 0.625 | 1.16 | 0.533 | 0.446 | 0.424 | 0.506 | 0.447
6 | HCC-15 | 0.346 | 0.298 | 0.298 | 0.408 | 0.627 | 0.755 | 0.717 | 0.474 | 0.54 | 0.587 | 0.559 | 0.463 | 0.389 | 0.381 | 0.505 | 0.355 | 0.423 | 0.485 | 0.482 | 0.283
7 | HCC-44 | 0.98 | 1.37 | 0.497 | 0.58 | 0.483 | 0.472 | 0.564 | 0.45 |  |  |  |  | 1.14 | 1.08 | 1.23 | 1.12 | 0.157 | 0.162 | 0.222 | 0.153
8 | HCC-78 |  |  |  |  | 0.363 | 0.369 | 0.393 | 0.363 | 0.462 | 0.379 | 0.364 | 0.392 | 0.823 | 0.756 | 0.797 | 0.737 | 0.853 | 0.656 | 0.817 | 0.708
